These results are taken from patent publication US20060004051A1, “Compounds” (priority 2002, published 2006).

Molecules are shown by their SMILES.

The subject of series [1] is TGF-β signalling (PAI-1 promoter linked to firefly luciferase) in HepG2 cells. In words: Cellular transcriptional assay (PAI-1 promoter luciferase reporter, TGF-β stimulated). Particulars: for IC50: Homo sapiens, HepG2, read-out: TGF-β cellular activity (IC50).
Protocol: The assay was performed in HepG2 cells stably transfected with the PAI-1 promoter (known to be a strong TGF-β responsive promoter) linked to a luciferase (firefly) reporter gene. The compounds were selected on their ability to inhibit luciferase activity in cells exposed to TGF-β. In addition, cells were transfected with a second luciferase (Renilla) gene which was not driven by a TGF-β responsive promoter and was used as a toxicity control.
96 well microplates were seeded, using a multidrop apparatus, with the stably transfected cell line at a concentration of 35000 cells per well in 200 μl of serum-containing medium. These plates were placed in a cell incubator.
18 to 24 hours later (Day 2), cell-incubation procedure was launched. Cells were incubated with TGF-β and a candidate compound at concentrations in the range 50 nM to 10 μM (final concentration of DMSO 1%). The final concentration of TGF-β (rhTGFβ-1) used in the test was 1 ng/mL. […] The final volume of the test reaction was 150 μl. Each well contained only one candidate compound and its effect on the PAI-1 promoter was monitored.
Columns 11 and 12 were employed as controls. Column 11 contained 8 wells in which the cells were incubated in the presence of TGF-β, without a candidate compound. Column 11 was used to determine the ‘reference TGF-β induced firefly luciferase value’ against which values measured in the test wells (to quantify inhibitory activity) were compared. In wells A12 to D12, cells were grown in medium without TGF-β. […]
12 to 18 hours later (day 3), the luciferase quantification procedure was launched. […] Following agitation (15 to 30 mins), luciferase activities of the plates were read in a dual-injector luminometer (BMG lumistar). For this purpose, 50 μl of luciferase assay reagent and 50 μl of ‘Stop & Glo’ buffer were injected sequentially to quantify the activities of both luciferases. […] For each of the compounds tested, a concentration response curve was constructed from which an IC50 value was determined graphically.
In series [2] the target is T1, recombinant GST-ALK5 (residues 198-503) (Homo sapiens, UniProt P36897).
T1 construct: recombinant GST-ALK5 (residues 198-503)
T1 sequence (P36897 198-503): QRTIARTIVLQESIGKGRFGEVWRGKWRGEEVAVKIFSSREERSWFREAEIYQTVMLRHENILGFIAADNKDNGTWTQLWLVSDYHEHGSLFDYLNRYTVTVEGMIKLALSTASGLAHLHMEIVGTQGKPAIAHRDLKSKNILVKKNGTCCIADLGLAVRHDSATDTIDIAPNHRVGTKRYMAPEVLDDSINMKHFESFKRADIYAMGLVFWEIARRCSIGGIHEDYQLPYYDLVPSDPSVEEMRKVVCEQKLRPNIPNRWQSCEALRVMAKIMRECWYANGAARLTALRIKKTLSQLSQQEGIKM
The experiment in a line: Alk5 fluorescence polarization assay. It counts as binding. The conditions noted are these: rhodamine green-labelled ligand 1 nM, ALK5 10 nM, read-out: ALK5 receptor modulator activity (IC50). The procedure:
Assay 2 (Alk5 Fluorescence Polarization Assay)
Kinase inhibitor compounds conjugated to fluorophores, can be used as fluorescent ligands to monitor ATP competitive binding of other compounds to a given kinase. The increase in depolarization of plane polarized light, caused by release of the bound ligand into solution, is measured as a polarization/anisotropy value. This protocol details the use of a rhodamine green-labelled ligand for assays using recombinant GST-ALK5 (residues 198-503).
Assay buffer components: 62.5 mM Hepes pH 7.5 (Sigma H-4034), 1 mM DTT (Sigma D-0632), 12.5 mM MgCl2 (Sigma M-9272), 1.25 mM CHAPS (Sigma C-3023). […]
ALK5 was added to assay buffer containing the above components and 1 nM of the rhodamine green-labelled ligand so that the final ALK5 concentration was 10 nM based on active site titration of the enzyme. […] The plates were read immediately on a LJL Acquest fluorescence reader (Molecular Devices, serial number AQ1048) with excitation, emission, and dichroic filters of 485 nm, 530 nm, and 505 nm, respectively. The fluorescence polarization for each well was calculated by the Acquest reader and then imported into curve fitting software for construction of concentration response curves. The normalized response was determined relative to the high controls (1 μl DMSO in column 12, rows A-D) and the low controls (1 μl of control compound in column 12, rows E-H). […]
In general terms: Polarisation of emitted light reports the rotation of a fluorescent probe.

With `O=C1C=CCC1` [CPO, Cyclopentenone, reference compound], the “firefly and renilla luciferase activities (toxicity control)” value in series [1] (500 μM CPO with TGF-β, relative to TGF-β only) is on record as “around 50%”.

In general, melting point refers to the temperature of the solid-liquid transition. The compound `Nc1nc(-c2ccccn2)c(-c2ccnc(-c3ccc(N4CCOCC4)cc3)c2)s1` [Example 1] yielded a melting point of 246 °C.

Consider `Cc1cccc(-c2nc(N)sc2-c2ccnc(-c3ccc(S(C)(=O)=O)cc3)c2)n1` [Example 2, 5-{2-[4-(methanesulfonyl)phenyl]pyridin-4-yl}-4-(6-methylpyridin-2-yl)-1,3-thiazol-2-amine], for which the melting point was in the range of 236 to 238 °C.

For orientation: IC50 means the concentration needed to halve the response being measured. In turn, `CCN1CCN(c2ccc(-c3cc(-c4sc(N)nc4-c4cccc(C)n4)ccn3)cc2)CC1` [Example 3] showed a melting point of 230 to 232 °C. Further, in series [1], the IC50 amounted to 29 nM. Further, the IC50 in series [2] turned out to be 14 nM.

In turn, `Cc1cccc(-c2nc(N)sc2-c2ccnc(-c3ccc(N4CCOCC4)cc3)c2)n1` [Example 4, 5-{2-[4-(morpholin-4-yl)phenyl]pyridinyl-4-yl}-4-(6-methylpyridin-2-yl)-1,3-thiazol-2-amine] yielded a melting point of 250 to 252 °C.

Regarding `Cc1cccc(-c2nc(N)sc2-c2ccnc(-c3ccc(C(=O)N4CCOCC4)cc3)c2)n1` [Example 5, 5-{2-[4-((morpholin-4-yl)carbonyl)phenyl]pyridin-4-yl]-4-(6-methylpyridin-2-y)-1,3-thiazol-2-amine], the melting point fell in the range of 158 to 160 °C.

The compound `Cc1cccc(-c2nc(N)sc2-c2ccnc(-c3ccc(C(=O)NC4CCOCC4)cc3)c2)n1` [Example 6, 5-{2-[4((tetrahydropyran-4-yl)-aminocarbonyl)-phenyl]pyridin-4-yl}-4-(6-methylpyridin-2-yl)-1,3-thiazol-2-amine] showed a melting point of 230 to 232 °C.

`Cc1cccc(-c2nc(N)sc2-c2ccnc(-c3ccc(CN4CCOCC4)cc3)c2)n1` [Example 7, 5-{2-[4-((morpholin-4-yl)methyl)phenyl]pyridin-4-yl}-4-(6-methylpyridin-2-yl)-1,3-thiazol-2-amine] returned a melting point of 190 to 192 °C.

Compound `COc1ccc(-c2cc(-c3sc(N)nc3-c3cccc(C)n3)ccn2)cc1` [Example 8, 5-{2-[4methoxyphenyl]pyridin-4-yl}-4-(6methylpyridin-2-yl)-1,3-thiazol-2-amine] returned a melting point of 188 to 190 °C.

In turn, `Cc1cccc(-c2nc(N)sc2-c2ccnc(-c3ccc(OC(F)(F)F)cc3)c2)n1` [Example 9, 5-{2-[4-trifluoromethoxyphenyl]pyridin-4-yl}-4-(6-methylpyridin-2-yl)-1,3-thiazol-2-amine] registered a melting point of 222 to 224 °C.

`Cc1cccc(-c2nc(N)sc2-c2ccnc(-c3ccc(OCCN4CCCC4)cc3)c2)n1` [Example 11, 5-{2-[4-(2-(pyrrolidin-1-yl)-ethoxy)-phenyl]pyridin-4-yl}-4-(6-methylpyridin-2-yl)-1,3-thiazol-2-amine]: the melting point was in the range of 176 to 178 °C.

Compound `Cc1cccc(-c2nc(N)sc2-c2ccnc(-c3ccc(OCc4cn(C)cn4)cc3)c2)n1` [Example 12, 5-{2-[4-((1-methyl-imidazol-4-yl)methyloxy)-phenyl]pyridin-4-yl}-4-(6-methylpyridin-2-yl)-1,3-thiazol-2-amine] came in with a melting point of 226 to 228 °C.

`Cc1cccc(-c2sc(N)nc2-c2ccnc(-c3ccc(Cl)cc3)c2)n1` [Example 13, 4-[2-(4-chlorophenyl)pyridin-4-yl]-5-(6-methylpyridin-2-yl]-1,3-thiazol-2-amine] registered a melting point of 222 °C.

`Cc1cccc(-c2sc(N)nc2-c2ccnc(-c3ccc(OC(F)(F)F)cc3)c2)n1` [Example 14, 4-[2-(4-trifluoromethoxyphenyl)pyridin-4-yl]-5-[6-methylpyridin-2-yl]-1,3-thiazol-2-amine] came in with a melting point of 232 °C.

`Cc1cccc(-c2sc(N)nc2-c2ccnc(-c3ccc(C(=O)N4CCOCC4)cc3)c2)n1` [Example 17] displayed a melting point of 246 °C.

`CCN1CCN(C(=O)c2ccc(-c3cc(-c4nc(N)sc4-c4cccc(C)n4)ccn3)cc2)CC1` [Example 18]: the melting point was 224 °C.

For the compound `Cc1cccc(-c2sc(N)nc2-c2ccnc(-c3ccc(CN4CCOCC4)cc3)c2)n1` [Example 19, 4-[2-(4-((morpholin-4-yl)methyl)phenyl)pyridin-4-yl]-5-[6-methylpyridin-2-yl]-1,3-thiazol-2-amine], the melting point amounted to 236 °C.

Take `Cc1cccc(-c2sc(N)nc2-c2ccnc(-c3ccc(N4CCOCC4)cc3)c2)n1` [Example 20, 4-[2-(4-(morpholin-4-yl)phenyl)pyridin-4-yl]-5-[6-methylpyridin-2-yl]-1,3-thiazol-2-amine]: the melting point was found to be 246 °C.

`Cc1cccc(-c2sc(N)nc2-c2ccnc(-c3ccc(OCCN4CCCC4)cc3)c2)n1` [Example 21, 4-[2-(4-(2-(pyrolidin-1-yl)-ethoxy)phenyl)pyridin-4-yl]-5-[6-methylpyridin-2-yl]-1,3-thiazol-2-amine]: the melting point was 150 °C.

In the case of `Cc1cccc(-c2sc(N)nc2-c2ccnc(-c3ccc(OCC(N)=O)cc3)c2)n1` [Example 22, 4-[2-(4-(aminocarbonylmethyloxy)phenyl)pyridin-4-yl]-5-[6-methylpyridin-2-yl]-1,3-thiazol-2-amine], the melting point turned out to be 191 °C.

`Cc1cccc(-c2sc(N)nc2-c2ccnc(-c3ccc(OCC(=O)N4CCOCC4)cc3)c2)n1` [Example 23, 4-[2-(4-((morpholin-4-yl)carbonylmethyloxy)phenyl)pyridin-4-yl]-5-[6-methylpyridin-2-yl]-1,3-thiazol-2-amine]: the melting point stood at 172 °C.

In the case of `Cc1cccc(-c2sc(N)nc2-c2ccnc(-c3ccc(CN4CCCC4)cc3)c2)n1` [Example 24, 4-[2-(4-((pyrrolidin-1-yl)methyl)phenyl)pyridin-4-yl]-5-[6-methylpyridin-2-yl]-1,3-thiazol-2-amine], the melting point was found to be 200 °C.

As for `Cc1cccc(-c2sc(N)nc2-c2ccnc(-c3ccc(CN(C)C)cc3)c2)n1` [Example 25, 4-[2-(4-((dimethylamino)methyl)phenyl)pyridin-4-yl]-5-[6-methylpyridin-2-yl]-1,3-thiazol-2-amine], the melting point was determined as 210 °C. The IC50 in series [1] was found to be 31 nM. For the same compound, the IC50 in series [2] is 29 nM.

Compound `Nc1nc(-c2ccnc(-c3ccc(C(=O)NC4CCOCC4)cc3)c2)c(-c2ccccn2)s1` [Example 26, 4-[2-(4-((tetrahydropyran-4-yl)aminocarbonyl)phenyl)pyridin-4-yl]-5-[pyridin-2-yl]-1,3-thiazol-2-amine] gave a melting point of 268 °C.

In the case of `Nc1nc(-c2ccnc(-c3ccc(N4CCOCC4)cc3)c2)c(-c2ccccn2)s1` [Example 27, 4-[2-(4-(morpholin-4-yl)phenyl)pyridin-4-yl]-5-[pyridin-2-yl]-1,3-thiazol-2-amine], the melting point was 276 °C.
